Experimental data taken from patent publication US7625711B2, “Screening method for the identification of a drug for the development of an agent for prevention and/or treatment of Alzheimer's disease” (Hisamitsu Pharmaceutical Co., Inc., priority 2003, dated 2009).

Assays:
Format in all cases: cell-based, human
[1] = tested on: SH-SY5Y cells; experiment: Cell viability assay (MTT method) after cisplatin treatment; details: SH-SY5Y cells treated with cisplatin, FIG. 14
Description: SH-SY5Y cells, which are a neuroblastoma cell line, are used as tumor cells. SH-SY5Y cells are treated with cisplatin, and then the cell viability is measured by the MTT method. FIG. 14 is a graph showing the relationship between the amount of cisplatin and the cell viability of SH-SY5Y cells. The cell viability was determined by a modified 3-(4,5-dimethylthiazol-2-yl)-2,5-diphenyltetrazolium bromide (MTT) assay. Specifically, […] cells were plated on 100 μl of complete medium in a 96-well micro titer plate (5×10^3 cells/well), and made to adhere thereto. On the next day, the medium was changed, and the cells were treated with cisplatin for 24 hours. In the MTT assay, 10 μl of MTT solution was added to each well, and incubated at 37° C. for 3 hours. The absorbance of the wells at 570 nm was measured using a microplate reader (Type 450, Bio-Rad Laboratories).

[2] = tested on: p21; experiment: Immunoblotting of cisplatin-treated SH-SY5Y cells with anti-p21 antibody; details: FIG. 15
Description: (§1) Next, products obtained by cisplatin treatment of SH-SY5Y cells are analyzed by immunoblotting and immunoprecipitation. Specifically, SH-SY5Y cells are treated with cisplatin, and then the expression levels of p53, p21, βAPP and actin are analyzed by immunoblotting. Moreover, an interaction between a βAPP-derived product and p53 is analyzed by immunoprecipitation and immunoblotting. FIG. 15 is diagrams showing the result of immunoblotting analysis of products obtained by cisplatin treatment of SH-SY5Y cells. In the figure, “IP” means immunoprecipitation, and “IB” means immunoblotting. The second diagram from the top in FIG. 15 is a diagram showing the result of immunoblotting analysis using anti-p53 antibody. […] The third diagram from the top in FIG. 15 is a diagram showing the result of immunoblotting analysis using anti-p21 antibody. […] The uppermost diagram in FIG. 15 is a diagram showing the result of immunoprecipitation of a cell lysate (homogenate) using anti-βAPP antibody, and immunoblotting analysis of the immunoprecipitate using anti-p53 antibody. […] Since βAPP is present on the membrane and p53 is present in the nucleus, it is unlikely that there is physical binding therebetween.

[3] = tested on: βAPP-derived product and p53; experiment: Immunoprecipitation with anti-βAPP antibody and immunoblotting with anti-p53 antibody of cisplatin-treated SH-SY5Y cells; details: SH-SY5Y cell lysate, IP anti-βAPP, IB anti-p53, FIG. 15
Description: as §1

[4] = tested on: p53; experiment: Immunoblotting of cisplatin-treated SH-SY5Y cells with anti-p53 antibody; details: FIG. 15
Description: as §1

N.N.[Cl][Pt][Cl] [cisplatin]
cell viability of SH-SY5Y cells [1]: the number of SH-SY5Y cells decreases depending on the dosage of cisplatin | expression of p21 [2]: p53 expressed during the cisplatin treatment promotes the expression of p21 | physical binding between a βAPP-derived product and p53 [3]: p53 is present in the cisplatin treatment group | induction of endogenous p53 [4]: the induction of endogenous p53 by cisplatin can be seen
